Measured values as given in patent US20240279176A1, “SUBSTITUTED TRICYCLIC HETEROCYCLIC COMPOUNDS AS METALLO-BETA-LACTAMASE INHIBITORS” (priority 2021, published 2024).
Read-outs that look alike come from different tables or passages of the source.

Tests used:
[1] = system: Klebsiella pneumoniae ATCC BAA-2146; assay: Checkerboard synergy assay in combination with Imipenem; assay type: cell-based; details: K. pneumoniae ATCC BAA-2146; for Fold reduction in Imipenem MIC in the presence of compounds (μg/mL) 4: compound at 4 μg/mL; for Fold reduction in Imipenem MIC in the presence of compounds (μg/mL) 8: compound at 8 μg/mL; for Fold reduction in Imipenem MIC in the presence of compounds (μg/mL) 16: compound at 16 μg/mL; for Fold reduction in Imipenem MIC in the presence of compounds (μg/mL) 32: compound at 32 μg/mL
Description: (§1) The strain included in the study was Klebsiella pneumoniae ATCC BAA-2146 (Himedia®, India) with presence of New Delhi metallo-β-lactamase (NDM-1) gene. The quality control reference strains Escherichia coli ATCC 25922 and Pseudomonas aeruginosa ATCC 27853 were procured from Himedia®, India.
(§2) The fold modulation activity of test compounds, in combination with Imipenem or Meropenem, was checked against Klebsiella pneumoniae ATCC BAA-2146 strain by the broth-microdilution checkerboard synergy assay. The plates contained 5×10^5 CFU/mL bacterial inocula and 2-fold serial dilutions of the antibiotics (128-2 μg/mL) as well as test compounds (32-4 μg/mL) in a total volume of 200 μL of CA-MHB. Dimethyl sulfoxide (DMSO, ≤2.5%) was included as vehicle control. Following 16-18 h of incubation at 37° C., the MICs of antibiotics as well as drug combinations were visually inspected.

NDM-1 = NDM-1 (Klebsiella pneumoniae, UniProt C7C422); assay: Enzyme activity: IC50 in fluorescence assay with cephalosporin substrate FC5; assay type: biochemical; details: 50 pM NDM-1, 1.5 μM FC5, 10 min pre-incubation
Experimental: (§3) The Class B beta-lactamases activities were measured in the presence of the test inhibitors in a fluorescence assay against an in-house synthesized fluorescent cephalosporin substrate FC5 (Berkel, et. al. J. Med. Chem. 2013, 56(17), 6945). The enzymes (NDM-1, IMP-1) and the substrate were diluted in 20 mM HEPES, pH 7.4, supplemented with 300 mM NaCl and 10 μM ZnSO4. In the assay, the final concentration of enzyme was 50 pM, and 100 pM for NDM-1, and IMP-1 respectively, and the final concentration of FC5 was 1.5 μM for NDM-1 and 10 μM for IMP-1. The test inhibitors/compounds were dissolved in dimethylsulfoxide (DMSO) and diluted in the assay with assay buffer (20 mM HEPES, pH 7.4, supplemented with 5% DMSO, 300 mM NaCl and 10 μM ZnSO4), resulting in a final concentration range of 0.008 μM to 25 μM. The assays were performed in 96-well microplate (flat bottom, black). The test inhibitors were incubated with the MBL enzyme for 10 min at room temperature, followed by addition the substrate and the fluorescence was recorded immediately (λex 380 nm, λem 460 nm) on a microplate reader. Using the initial velocity data plotted against the inhibitor concentration, the half-maximal inhibitory concentrations were calculated by an IC50 curve-fitting model in GraphPad Prism 9 software.

IMP-1 = IMP-1 (Serratia marcescens, UniProt P52699); assay: as above; assay type: biochemical; details: 100 pM IMP-1, 10 μM FC5, 10 min pre-incubation
Experimental: as §3

[2] = system: Klebsiella pneumoniae ATCC BAA-2146; assay: Minimum inhibitory concentration (MIC), broth-microdilution (CLSI); assay type: cell-based; details: ATCCBAA2146, compound alone, K. pneumoniae ATCC BAA-2146, read-out: Intrinsic MIC
Description: as §1
MIC values were identified through broth-microdilution in sterilized 96-well polystyrene flat-bottom microtitre plates (Cole-Parmer®) according to the guideline of the Clinical and Laboratory Standards Institute (CLSI) (CLSI; Methods for dilution antimicrobial susceptibility tests for bacteria that grow aerobically; Clinical Laboratory Standards Institute, M07-A09, 2012). This method involves the use of BBL™ Cation-adjusted Mueller-Hinton II Broth (CA-MHB; BD) and the strain (Klebsiella pneumoniae ATCC BAA-2146) concentration was adjusted to 5×10^5 CFU/mL. After 16-18 h of incubation at various concentrations of Imipenem, Meropenem (Alfa Aesar), or test compounds at 37° C., MIC was defined as the lowest concentration of antibiotic or test compound with no visible growth.

[3] = system: Klebsiella pneumoniae ATCC BAA-2146; assay: Checkerboard synergy assay in combination with Meropenem; assay type: cell-based; details: K. pneumoniae ATCC BAA-2146; for Fold reduction in meropenem MIC in the presence of compounds (μg/mL) 4: compound at 4 μg/mL; for Fold reduction in meropenem MIC in the presence of compounds (μg/mL) 8: compound at 8 μg/mL; for Fold reduction in meropenem MIC in the presence of compounds (μg/mL) 16: compound at 16 μg/mL; for Fold reduction in meropenem MIC in the presence of compounds (μg/mL) 32: compound at 32 μg/mL
Description: as §1, §2

Sequence of NDM-1 (C7C422 29-270, looked up): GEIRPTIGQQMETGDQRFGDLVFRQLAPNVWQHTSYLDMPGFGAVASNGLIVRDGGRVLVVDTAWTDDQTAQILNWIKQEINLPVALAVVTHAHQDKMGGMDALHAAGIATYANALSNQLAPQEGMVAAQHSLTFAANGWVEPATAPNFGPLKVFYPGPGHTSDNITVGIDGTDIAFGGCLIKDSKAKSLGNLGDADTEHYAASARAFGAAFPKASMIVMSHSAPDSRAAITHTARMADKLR
Sequence of IMP-1 (P52699 19-246, looked up, species assumed): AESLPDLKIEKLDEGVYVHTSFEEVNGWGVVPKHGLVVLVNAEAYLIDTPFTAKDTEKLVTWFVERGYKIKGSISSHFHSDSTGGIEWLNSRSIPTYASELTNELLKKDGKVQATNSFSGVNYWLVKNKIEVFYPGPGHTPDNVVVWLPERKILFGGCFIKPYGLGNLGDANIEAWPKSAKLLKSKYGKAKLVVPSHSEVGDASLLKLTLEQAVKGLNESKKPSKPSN

Fold reduction in Imipenem MIC in the presence of compounds (μg/mL) 4 [1] [fold] | Fold reduction in Imipenem MIC in the presence of compounds (μg/mL) 8 [1] [fold] | Fold reduction in Imipenem MIC in the presence of compounds (μg/mL) 16 [1] [fold] | Fold reduction in Imipenem MIC in the presence of compounds (μg/mL) 32 [1] [fold] | IC50 (NDM-1) [µM] | IC50 (IMP-1) [µM] | MIC ([2]; Imipenem series) [µg/mL] | MIC ([2]; meropenem series) [µg/mL] | Fold reduction in meropenem MIC in the presence of compounds (μg/mL) 4 [3] [fold] | Fold reduction in meropenem MIC in the presence of compounds (μg/mL) 8 [3] [fold] | Fold reduction in meropenem MIC in the presence of compounds (μg/mL) 16 [3] [fold] | Fold reduction in meropenem MIC in the presence of compounds (μg/mL) 32 [3] [fold] | SMILES
2 | 2 | 2 | 4 | 2.65 | 18.3 | > 64 | > 64 | 2 | 2 | 4 | 4 | COc1ccc(-c2c(C(=O)O)[nH]c3c2CCc2ccccc2-3)cc1 [Example 36, 3-(4-Methoxyphenyl)-4,5-dihydro-1H-benzo[g]indole-2-carboxylic Acid]
2 | 2 | 4 | 4 | 0.342 | 3.86 | > 64 | > 64 | 4 | 4 | 4 | 4 | O=C(O)c1[nH]c2c(c1-c1ccc(F)c(F)c1)CCc1ccccc1-2 [Example 37, 3-(3,4-Difluorophenyl)-4,5-dihydro-1H-benzo[g]indole-2-carboxylic Acid]
4 | 4 | 8 | 8 | 0.026 | 0.026 | > 128 | > 128 | 4 | 4 | 4 | 8 | COc1ccc(Cl)cc1-c1c(C(=O)O)[nH]c2c1CCc1ccccc1-2 [Example 38, 3-(5-Chloro-2-methoxyphenyl)-4,5-dihydro-1H-benzo[g]indole-2-carboxylic Acid]
2 | 4 | 4 | 4 | 0.591 | 72.1 | > 64 | > 64 | 4 | 4 | 4 | 4 | CC(C)(C)c1ccc(-c2c(C(=O)O)[nH]c3c2CCc2ccccc2-3)cc1 [Example 39, 3-(4-(tert-Butyl)phenyl)-4,5-dihydro-1H-benzo[g]indole-2-carboxylic Acid]
4 | 4 | 8 | 8 | 0.256 | 1.34 | > 128 | > 128 | 4 | 4 | 4 | 8 | O=C(O)c1[nH]c2c(c1-c1ccccc1F)CCc1ccccc1-2 [Example 41, 3-(2-Fluorophenyl)-4,5-dihydro-1H-benzo[g]indole-2-carboxylic Acid]
4 | 4 | 8 | 8 | 0.079 | 1.15 | > 128 | > 128 | 4 | 4 | 4 | 8 | O=C(O)c1[nH]c2c(c1-c1cccc(F)c1)CCc1ccccc1-2 [Example 42, 3-(3-Fluorophenyl)-4,5-dihydro-1H-benzo[g]indole-2-carboxylic Acid]
4 | 4 | 4 | 8 | 0.007 | 1.48 | > 128 | > 128 | 4 | 4 | 4 | 4 | O=C(O)c1[nH]c2c(c1-c1ccc(Cl)cc1)CCc1ccccc1-2 [Example 43, 3-(4-chlorophenyl)-4,5-dihydro-1H-benzo[g]indole-2-carboxylic Acid]
4 | 4 | 4 | 4 | 0.019 | 1.1 | > 128 | > 128 | 4 | 4 | 4 | 4 | O=C(O)c1[nH]c2c(c1-c1ccccc1Cl)CCc1ccccc1-2 [Example 44, 3-(2-chlorophenyl)-4,5-dihydro-1H-benzo[g]indole-2-carboxylic Acid]
4 | 4 | 8 | 16 | 0.306 | 10.4 | > 128 | > 128 | 4 | 4 | 8 | 16 | O=C(O)c1[nH]c2c(c1-c1ccc(Cl)cc1Cl)CCc1ccccc1-2 [Example 46, 3-(2,4-dichlorophenyl)-4,5-dihydro-1H-benzo[g]indole-2-carboxylic acid]
